Source: paper PMC12444508, “Mechanistic Insights into the Anticancer Action of Novel 2‑Hydroxy-1,4-naphthoquinone Thiol Derivatives” (ACS Omega, 2025)

Legend:
SCC-4 cells = assay: MTT cell viability assay, SCC-4; type: cell-based, human; details: for IC50: Homo sapiens, SCC-4, 72 h, MTT, read-out: IC50 SCC-4; for selective index (SI) SCC-4: vs normal oral fibroblasts
Protocol: (§1) Human SCC-4, SCC-9, and SCC-25 cells, derived from a human oral tongue SCC (squamous cell carcinoma), were obtained from ATCC (CRL-1624, CRL-1629, and CRL-1628, respectively) and maintained in 1:1 DMEM/F12 (Dulbecco’s modified Eagle’s medium and Ham’s F12 medium; Gibco (Thermo Fisher, Waltham, MA, USA)) supplemented with 10% (v/v) FBS (fetal bovine serum; Invitrogen, Thermo Fisher, Waltham, MA, USA) and 400 ng/mL hydrocortisone (Sigma-Aldrich Corporation, St. Louis, MO, USA). B16-F10 (melanoma; CRL-6475), HCT-116 (colorectal cancer; CCL-247), and HepG2 (liver cancer; HB-8065), in addition to primary normal human gingival fibroblasts obtained from ATCC (PCS-201-018), were maintained in DMEM supplemented with 10% (v/v) of FBS and were used in a maximum of six passages. Cells were grown in a humidified environment containing 5% CO2 at 37 °C. For all biological assays, compounds and shikonin were solubilized in 100% DMSO (all Sigma-Aldrich Corp.) to a final concentration of 10 mM and lapachol in ethanol. The carboplatin control was prepared in water (Fauldcarbo; Libbs Farmacêutica, São Paulo, SP, Brazil) and was used as a standard anticancer compound.
(§2) The viability of OSCC cell lines and primary human fibroblast cells was assessed using the MTT assay as in ref . Briefly, cells were grown in triplicate in 96-well plates (5 × 10^3 cells/well) until confluence. Then, the medium was removed, fresh medium was added, and the cells were returned to the incubator in the presence of different compounds. DMSO at the same concentration was used as a control for 100% cell viability. After 72 h, cells were incubated with 0.5 mg/mL of MTT reagent (3-(4,5-dimethyl-2-thiazolyl)-2,5-diphenyl-2-H-tetrazolium bromide) (Sigma-Aldrich Corporation, Louis, MO, USA) for 3.5 h. Then, the wells containing the cells were washed with PBS heated to 37 °C, the formazan crystals were dissolved in a solvent solution (DMSO/methanol 1:1 v/v), and the absorbance was read at 560 nm using an EPOCH microplate spectrophotometer (BioTek Instruments, Winooski, VT, USA) with the background absorbance at 670 nm subtracted. Control chemotherapeutics (carboplatin and shikonin) were used.
Data are presented as means ± SD. IC50 values for the MTT assays were obtained by nonlinear regression using the […] 8.4.3.0 program (Intuitive Software for Science, San Diego, CA, USA) from at least three independent experiments. A dose–response curve (inhibitor) vs response using the least-squares method was used to determine the IC50, SD, and R2 of the data. The selectivity index was calculated as SI = IC50 of the compound in normal oral fibroblast cells/IC50 of the same compound for each oral cancer cell line (SCC-4, SCC-9, and SCC-25) and averaged when indicated.

SCC-9 cells = assay: Cell migration (wound healing) assay; type: cell-based, human; details: 1/8 of IC50, 72 h, SCC-9, mitomycin C
Protocol: To evaluate the inhibitory capacity of cell migration by substances 7a and 7e, 2 × 10^5 cells of the SCC-9 lineage were plated in a 35 mm Petri dish containing 2.0 mL of supplemented DMEN/F-12 medium and incubated at 37 °C with 5% CO2 until they reached at least ∼100% confluence. After this time, the metabolized medium was removed, and the cells were washed once with PBS and fresh medium (2.0 mL) treated with mitomycin C (MMC), 1-amino-9a-metoxi-7-metil-4,7,9,9a-tetra-hidro-3H-furo[3,4:6,7]-nafto[1,2-d]-imidazole-2(1H)-ona (Sigma-Aldrich Corporation, San Luis, Missouri, USA) at a concentration of 0.5 mg/mL, in a volume of 0.5 μL/mL, and returned to the incubator for 2 h. At the end of the time, scratch wounds were created on the cell monolayer by using a 200 μL capacity tip. […] The plate containing the cells was inserted into a chamber adapted to a Leica DMi1 inverted optical microscope (Leica Microsystems, Wetzlar, Germany) under controlled conditions of CO2 (5%) and temperature (37 °C). Phase contrast images in timelapse footage at 20× magnification for 72 h were captured every 2 min and 24 s. Measurements between the captured margins were collected using ImageJ analysis software (National Institute of Health, USA). […] The percentage of wound closure at each subsequent time is calculated in relation to the initial distance (time: 0 h).

B16-F10 (melanoma) = assay: MTT cytotoxicity/selectivity, B16-F10; type: cell-based; details: vs normal oral fibroblasts
Protocol: as §1
as §2, with “DMSO at the same concentration was used as a control for 100% cell viability. After 72 h, cells were incubated with 0.5 mg/mL of MTT reagent (3-(4,5-dimethyl-2-thiazolyl)-2,5-diphenyl-2-H-tetrazolium bromide) (Sigma-Aldrich Corporation, Louis, MO, USA) for 3.5 h.” left out, “Control chemotherapeutics (carboplatin and shikonin) were used.” left out
Data are presented as means ± SD. […] The selectivity index was calculated as SI = IC50 of the compound in normal oral fibroblast cells/IC50 of the same compound for each oral cancer cell line (SCC-4, SCC-9, and SCC-25) and averaged when indicated.

Hemolysis assay = type: cell-based, human; details: human, human erythrocytes, Triton X-100 positive control, read-out: % Hemolysis (Mean ± SD)
Protocol: To determine the surfactant power of the substances present in biological membranes, a hemolysis test was carried out with human blood approved by the Research Ethics Committee of the Universidade Federal Fluminense (CAAE: 43134721.4.0000.5626). Erythrocytes were collected for centrifugation at 1500 rpm for 15 min, washed with PBS (phosphate-buffered saline) supplemented with 10 mM glucose, and counted in an automatic cell counter (Thermo Fisher, Waltham, MA, USA). […] In total, 10 μL of PBS was used as a negative control, and 10 μL of PBS with 0.1% Triton x 100 was used as a positive control. Data reading was performed with EPOCH (BioTek Instruments, Winooski, VT, USA) at an absorbance of 540 nm, and statistical data were generated using […] Prism 8.4.3.0 program (Intuitive Software for Science, San Diego, CA, USA).

C57BL/6 mice = assay: In vivo acute toxicity study; details: single intraperitoneal dose 100, 200 and 400 mg/kg, 14 days
Protocol: . All experiments were carried out in accordance with Brazilian guidelines and regulations. Dosing and analysis were performed in accordance with 423 OECD guidelines and reviewed by. Each group of animals had n = 3 and received only one intraperitoneal injection (Day 0) of compounds 7a and 7e dissolved in […] of PBS and 3% DMSO. Animals in the control group received only 3% DMSO in PBS. The first dose of the compound was 100 mg/kg. Subsequent dose levels (200 mg/kg and 400 mg/kg) were determined based on the result obtained from the previous dose. Animals were examined daily, twice a day, for mortality and morbidity for 14 days, when all animals were anesthetized (ketamine 100 mg/kg and xylazine 10 mg/kg) followed by cervical dislocation. Macroscopic necropsy of the main organs was performed. The animals’ body weight and average food consumption were measured every 7 days. As an indicator of morbidity, the following signs were evaluated: tremors, seizure, salivation, diarrhea, and lethargy, along with the signs of pain, increased back arching, and mobility disability. The necropsy included examination of the external characteristics of the carcass; external orifices of the body; the abdominal, thoracic, and cranial cavities; and organs/tissues of the liver, thymus, right kidney, right testicle, heart, and lung.

SMILES | IC50 (SCC-4 cells) [µM] | selective index (SI) SCC-4 (SCC-4 cells) | wound closure (SCC-9 cells) [%] | selective index (SI) B16-F10 melanoma (B16-F10 (melanoma)) | hemolysis at 500 µM (Hemolysis assay) [%] | abdominal cavity and macroscopic organs at necropsy (C57BL/6 mice) | body weight and food consumption vs control animals (C57BL/6 mice)
COc1ccc(SC2C3=C(OC(C)(C)C2Sc2ccc(OC)cc2)C(=O)c2ccccc2C3=O)cc1 (centres unmarked) [7e, 3,4-Bis((4-methoxyphenyl)thio)-2,2-dimethyl-3,4-dihydro-2H-benzo[g]chromene-5,10-dione] | 57.1 | 1.9 | 54.7 | 7.5 | < 2 | no morphological changes or lesions | no significant difference
CC1(C)OC2=C(C(=O)c3ccccc3C2=O)C(Sc2ccccc2)C1Sc1ccccc1 (centres unmarked) [7a, 2,2-Dimethyl-3,4-bis(phenylthio)-3,4-dihydro-2H-benzo[g]chromene-5,10-dione] | 10.6 | 5.4 | 28.4 | 1.4 | < 2 | no morphological changes or lesions | no significant difference
